# From PubChem BioAssay AID2060483 (Molecular Pharmacology Branch, DTP, NCI, 2025)
# System: K24384-001-R-PDC complex spheroids, viability
# Assay: Anticancer human tumor K24384-001-R-PDC patient-derived pancreatic adenocarcinoma cell line growth inhibition [GQUAD]
# Details: for IC50: curve of first compound; for viability, T/C: stronger effect = lower value
# In short: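 Viability of tumor cells grown as complex spheroids with endothelial and stromal cells, exposed to drug combinations. Top concentration at or near clinical Cmax (else 10 microM), diluted in half-log increments.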
# 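Also: spheroids exposed to compounds for seven days.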
smiles,measurement,setting,value
COc1ccc([C@@H](O)c2cc(-c3ncnc4cc(N5CCOCC5)ccc34)c(F)cc2Cl)nn1 + CN(C)c1ccc(Nc2c3ccc(NC(=O)CCN4CCCC4)cc3nc3cc(NC(=O)CCN4CCCC4)ccc23)cc1,IC50,second compound 0.0316 µM,2100 nM
same,IC50,second compound 0.1 µM,2600 nM
same,IC50,second compound 0.316 µM,1610 nM
same,IC50,second compound 1 µM,1930 nM
same,IC50,second compound 3.16 µM,2540 nM
same,IC50,second compound 10 µM,1080 nM
same,"viability, T/C","second compound 0.0316 µM, first compound 0.0316 µM",98.6%
same,"viability, T/C","second compound 0.0316 µM, first compound 0.1 µM",86.4%
same,"viability, T/C","second compound 0.0316 µM, first compound 0.316 µM",81.2%
same,"viability, T/C","second compound 0.0316 µM, first compound 1 µM",58.7%
same,"viability, T/C","second compound 0.0316 µM, first compound 3.16 µM",44.3%
same,"viability, T/C","second compound 0.0316 µM, first compound 10 µM",36.5%
same,"viability, T/C","second compound 0.1 µM, first compound 0.0316 µM",89.5%
same,"viability, T/C","second compound 0.1 µM, first compound 0.1 µM",96.5%
same,"viability, T/C","second compound 0.1 µM, first compound 0.316 µM",102%
same,"viability, T/C","second compound 0.1 µM, first compound 1 µM",76.6%
same,"viability, T/C","second compound 0.1 µM, first compound 3.16 µM",45.9%
same,"viability, T/C","second compound 0.1 µM, first compound 10 µM",34.9%
same,"viability, T/C","second compound 0.316 µM, first compound 0.0316 µM",91.4%
same,"viability, T/C","second compound 0.316 µM, first compound 0.1 µM",109%
same,"viability, T/C","second compound 0.316 µM, first compound 0.316 µM",83.8%
same,"viability, T/C","second compound 0.316 µM, first compound 1 µM",56.8%
same,"viability, T/C","second compound 0.316 µM, first compound 3.16 µM",42.5%
same,"viability, T/C","second compound 0.316 µM, first compound 10 µM",25.8%
same,"viability, T/C","second compound 1 µM, first compound 0.0316 µM",82.1%
same,"viability, T/C","second compound 1 µM, first compound 0.1 µM",83.1%
same,"viability, T/C","second compound 1 µM, first compound 0.316 µM",84.8%
same,"viability, T/C","second compound 1 µM, first compound 1 µM",62.4%
same,"viability, T/C","second compound 1 µM, first compound 3.16 µM",40.3%
same,"viability, T/C","second compound 1 µM, first compound 10 µM",23.4%
same,"viability, T/C","second compound 3.16 µM, first compound 0.0316 µM",91.9%
same,"viability, T/C","second compound 3.16 µM, first compound 0.1 µM",95.4%
same,"viability, T/C","second compound 3.16 µM, first compound 0.316 µM",72.2%
same,"viability, T/C","second compound 3.16 µM, first compound 1 µM",75.5%
same,"viability, T/C","second compound 3.16 µM, first compound 3.16 µM",42.4%
same,"viability, T/C","second compound 3.16 µM, first compound 10 µM",22.5%
same,"viability, T/C","second compound 10 µM, first compound 0.0316 µM",67.3%
same,"viability, T/C","second compound 10 µM, first compound 0.1 µM",73.6%
same,"viability, T/C","second compound 10 µM, first compound 0.316 µM",72.3%
same,"viability, T/C","second compound 10 µM, first compound 1 µM",44.3%
same,"viability, T/C","second compound 10 µM, first compound 3.16 µM",34.3%
same,"viability, T/C","second compound 10 µM, first compound 10 µM",12.3%
